Results taken from ChEMBL document CHEMBL1201862, “PubChem BioAssay data set” (2004).
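Where inhibition never reached the appropriate level, the endpoint shown equals the highest concentration tested. Otherwise, values were interpolated linearly from a five-concentration, 48-hour dose response in 96-well plates. GI50: concentration for 50% inhibition of growth.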 Calls of active or inactive are those of the source. Rule as the data show it: active = GI50 up to about 1.1 µM and inactive = higher. Square brackets hold non-standard residues; d marks the D form. Peptide text beside a SMILES is read from it. * marks the point of attachment. Boc = CC(C)(C)OC(=O)*; Lac = C[CH](O)C(=O)O; OBn = c1ccc(CO*)cc1

What was measured:
Test in all cases: NCI tumour cell line growth inhibition, 48 h
[1] = system: HCC 2998
[2] = system: HOP-18
[3] = system: COLO 205
[4] = system: MOLT-4
[5] = system: SF-268
[6] = system: OVCAR-5
[7] = system: A549
[8] = system: NCI-H226
[9] = system: SW-620
[10] = system: DMS-273
[11] = system: TK-10
[12] = system: SK-OV-3
[13] = system: DMS-114
[14] = system: T47D
[15] = system: PC-3
[16] = system: DU-145
[17] = system: MDA-MB-231
[18] = system: Hs-578T
[19] = system: BT-549
[20] = system: LXFL 529

SMILES: CC1CC2=C(S(=O)(=O)c3ccccc3)CC(S(=O)(=O)c3ccccc3)(S(=O)(=O)c3ccccc3)CC21 (stereo unspecified)
- GI50 [1]: > 100 µM (inactive)
- GI50 [2]: > 100 µM (inactive)
- GI50 [3]: > 100 µM (inactive)
- GI50 [4]: > 100 µM (inactive)
- GI50 [5]: > 100 µM (inactive)
- GI50 [6]: > 100 µM (inactive)
- GI50 [7]: > 100 µM (inactive)
- GI50 [8]: > 100 µM (inactive)
- GI50 [9]: > 100 µM (inactive)
- GI50 [10]: > 100 µM (inactive)
- GI50 [11]: > 100 µM (inactive)
- GI50 [12]: > 100 µM (inactive)
- GI50 [13]: 9.64 µM (inactive)

SMILES: COP(=O)(OC)C(N)Cc1c[nH]c2ccccc12 (stereo unspecified)
- GI50 [14]: > 100 µM (inactive)
- GI50 [1]: > 100 µM (inactive)
- GI50 [3]: > 100 µM (inactive)
- GI50 [4]: > 100 µM (inactive)
- GI50 [15]: > 100 µM (inactive)
- GI50 [6]: > 100 µM (inactive)
- GI50 [7]: > 100 µM (inactive)
- GI50 [16]: > 100 µM (inactive)
- GI50 [8]: > 100 µM (inactive)
- GI50 [9]: > 100 µM (inactive)
- GI50 [17]: > 100 µM (inactive)
- GI50 [18]: > 100 µM (inactive)
- GI50 [11]: > 100 µM (inactive)
- GI50 [12]: > 100 µM (inactive)

SMILES: CC(OC(=O)C(Cc1ccccc1)NC(=O)C(Cc1ccccc1)NC(=O)OC(C)(C)C)C(=O)OCc1ccccc1 (stereo not drawn) (Boc-Phe-Phe-[Lac]-OBn; configuration not given here)
- GI50 [14]: > 100 µM (inactive)
- GI50 [1]: > 100 µM (inactive)
- GI50 [3]: > 100 µM (inactive)
- GI50 [19]: > 100 µM (inactive)
- GI50 [4]: > 100 µM (inactive)
- GI50 [15]: > 100 µM (inactive)
- GI50 [6]: > 100 µM (inactive)
- GI50 [16]: > 100 µM (inactive)
- GI50 [8]: > 100 µM (inactive)
- GI50 [17]: > 100 µM (inactive)
- GI50 [18]: > 100 µM (inactive)
- GI50 [12]: > 100 µM (inactive)

SMILES: Nc1ccccc1C(=O)N/N=C1\C(=O)Nc2ccccc21
- GI50 [14]: > 100 µM (inactive)
- GI50 [1]: > 100 µM (inactive)
- GI50 [3]: > 100 µM (inactive)
- GI50 [19]: 30.8 µM (inactive)
- GI50 [4]: > 100 µM (inactive)
- GI50 [5]: 88.7 µM (inactive)
- GI50 [15]: > 100 µM (inactive)
- GI50 [6]: > 100 µM (inactive)
- GI50 [7]: > 100 µM (inactive)
- GI50 [16]: > 100 µM (inactive)
- GI50 [8]: > 100 µM (inactive)
- GI50 [17]: 19.6 µM (inactive)
- GI50 [18]: 37.7 µM (inactive)
- GI50 [11]: 32.5 µM (inactive)
- GI50 [12]: > 100 µM (inactive)

SMILES: O=C1Nc2ccc(Cl)cc2/C1=C\c1c(Cl)nc2sccn12
- GI50 [14]: > 100 µM (inactive)
- GI50 [1]: 2.14 µM (inactive)
- GI50 [19]: 7.57 µM (inactive)
- GI50 [4]: 2.59 µM (inactive)
- GI50 [5]: > 100 µM (inactive)
- GI50 [15]: 4.93 µM (inactive)
- GI50 [6]: 14.7 µM (inactive)
- GI50 [16]: 73.5 µM (inactive)
- GI50 [9]: 14.8 µM (inactive)
- GI50 [17]: 2.56 µM (inactive)
- GI50 [11]: 8.47 µM (inactive)
- GI50 [12]: 36.8 µM (inactive)

SMILES: COc1cc2cc(C(=O)N3CC(CCl)c4ccc(NO)cc43)[nH]c2c(OC)c1OC (stereo unspecified)
- GI50 [14]: 0.436 µM (active)
- GI50 [1]: 0.0977 µM (active)
- GI50 [3]: 0.468 µM (active)
- GI50 [19]: 0.253 µM (active)
- GI50 [4]: 0.184 µM (active)
- GI50 [5]: 0.101 µM (active)
- GI50 [15]: 0.0914 µM (active)
- GI50 [6]: 0.15 µM (active)
- GI50 [7]: 0.0897 µM (active)
- GI50 [16]: 0.0953 µM (active)
- GI50 [8]: 0.244 µM (active)
- GI50 [9]: 0.166 µM (active)
- GI50 [17]: 0.254 µM (active)
- GI50 [18]: 0.296 µM (active)
- GI50 [11]: 0.313 µM (active)
- GI50 [12]: 0.284 µM (active)

SMILES: COC(=O)C(F)C(Br)C(=O)OC (stereo unspecified)
- GI50 [14]: 2.15 µM (inactive)
- GI50 [1]: 8 µM (inactive)
- GI50 [3]: 1.67 µM (inactive)
- GI50 [19]: 16.2 µM (inactive)
- GI50 [4]: 0.9 µM (active)
- GI50 [5]: 7.71 µM (inactive)
- GI50 [15]: 3.63 µM (inactive)
- GI50 [6]: 16.4 µM (inactive)
- GI50 [7]: 19.7 µM (inactive)
- GI50 [16]: 9.55 µM (inactive)
- GI50 [8]: 20.9 µM (inactive)
- GI50 [9]: 1.95 µM (inactive)
- GI50 [17]: 14.6 µM (inactive)
- GI50 [18]: 16.6 µM (inactive)
- GI50 [11]: 2.38 µM (inactive)
- GI50 [12]: 18.5 µM (inactive)

SMILES: CCC(=O)NC(Nc1cccc(F)c1)(C(F)(F)F)C(F)(F)F
- GI50 [14]: > 100 µM (inactive)
- GI50 [1]: > 100 µM (inactive)
- GI50 [3]: > 100 µM (inactive)
- GI50 [19]: > 100 µM (inactive)
- GI50 [4]: 57 µM (inactive)
- GI50 [5]: > 100 µM (inactive)
- GI50 [15]: > 100 µM (inactive)
- GI50 [6]: > 100 µM (inactive)
- GI50 [7]: > 100 µM (inactive)
- GI50 [16]: > 100 µM (inactive)
- GI50 [9]: > 100 µM (inactive)
- GI50 [17]: > 100 µM (inactive)
- GI50 [18]: 98.6 µM (inactive)
- GI50 [11]: > 100 µM (inactive)
- GI50 [12]: > 100 µM (inactive)

SMILES: CC1CC(C[N+](=O)[O-])CC2(C1)OCCO2 (stereo unspecified)
- GI50 [1]: > 100 µM (inactive)
- GI50 [2]: > 100 µM (inactive)
- GI50 [3]: > 100 µM (inactive)
- GI50 [4]: > 100 µM (inactive)
- GI50 [5]: > 100 µM (inactive)
- GI50 [7]: > 100 µM (inactive)
- GI50 [8]: > 100 µM (inactive)
- GI50 [9]: > 100 µM (inactive)
- GI50 [10]: > 100 µM (inactive)
- GI50 [11]: > 100 µM (inactive)
- GI50 [12]: > 100 µM (inactive)
- GI50 [13]: > 100 µM (inactive)
- GI50 [20]: > 100 µM (inactive)
